Results as given in patent US20110163045A1, “METHOD AND SYSTEM FOR TREATING CONTAMINATED WATER” (Ramot at Tel-Aviv University Ltd., priority 2008, published 2011).
Values joined by “and” are separate entries in the source; they are usually repeats but may differ in a detail not shown here. Identical values can stand only once. Like-named read-outs stand apart in the source and are kept apart here.

Columns and labels:
[1] = cited from earlier work
[2] = Direct UV photolytic degradation of single contaminants in deionized water (collimated beam MP Hg lamp, HPLC/MS/MS); format: physicochemical; settings: for Optimal pH for photodegradation: UV direct photolysis; for pH dependence of rate constant (k) for photolytic degradation: FIG. 21 and FIG. 23, in words; for UV dose for 90% degradation: polychromatic UV 200-400 nm
Method: Solutions of tested contaminants were prepared by dissolving one or more contaminant in 150 ml deionized water (DI) at a concentration of 1 mg/l for each contaminant. The solution was then placed into an open 90×50 mm crystallization dish. […] No. 7830-61, from Ace Glass Inc.) housed in a bench scale collimated beam apparatus. […] 0.5 ml samples were removed from the irradiated solution at selected time intervals in order to measure the concentration of the remaining contaminant. Samples were measured in a 1100-Finnigan LCQ HPLC/MS/MS (high performance liquid chromatography/tandem mass spectrometry) apparatus (Agilent), in order to obtain a chromatogram for the sample. The concentration was expressed as the area of the peak observed in the HPLC/MS/MS chromatogram. The degradation kinetics were expressed as a logarithm of the ratio of the concentration (CH) remaining following a dose H of irradiation to initial concentration (C0). Such a logarithm decreased in a linear manner as a function of the dose, as follows: […] The data were fitted using a linear regression approach (with R^2>0.9) resulting in pseudo-first order reaction kinetics which reflect the difference in photodegradation between samples.

[3] = cited from earlier work; remark: listed apart in the source
[4] = 5 mg/L hydrogen peroxide, UV fluence of 50 mJ/cm^2; cited from earlier work
[5] = cited from earlier work; remark: listed apart in the source
[6] = UV fluence of 1000 mJ/cm^2, pH 7.5, 254 nm; cited from earlier work
[7] = Direct UV photolytic degradation of SMX in synthetic effluent water; format: physicochemical
Method: Solutions of tested contaminants were prepared by dissolving one or more contaminant in 150 ml deionized water (DI) at a concentration of 1 mg/l for each contaminant. The solution was then placed into an open 90×50 mm crystallization dish.
The aqueous solution was stirred continuously for the duration of the experiment, and irradiated using a 0.45 kW polychromatic medium-pressure (MP) Hg vapor lamp (Ace-Hanovia Lamp Cat. No. 7830-61, from Ace Glass Inc.) housed in a bench scale collimated beam apparatus. The polychromatic irradiation was at ultraviolet (UV) wavelengths in a range of 200-400 nm.
0.5 ml samples were removed from the irradiated solution at selected time intervals in order to measure the concentration of the remaining contaminant. Samples were measured in a 1100-Finnigan LCQ HPLC/MS/MS (high performance liquid chromatography/tandem mass spectrometry) apparatus (Agilent), in order to obtain a chromatogram for the sample. The concentration was expressed as the area of the peak observed in the HPLC/MS/MS chromatogram.
The data were fitted using a linear regression approach (with R^2>0.9) resulting in pseudo-first order reaction kinetics which reflect the difference in photodegradation between samples. The constant k (cm^2/mJ), the degradation rate fluence-based constant, was calculated as the negative slope obtained when the degradation was plotted logarithmically as described hereinabove.
The UV dose required for 90% degradation of the tested contaminants was calculated using the obtained value for k, by inserting the appropriate numbers into the above equation: […]
Synthetic wastewater was prepared as described in Seo et al. and diluted with deionized water to obtain a 70% transmittance at 254 nm, which is typical for wastewater effluents treated by UV irradiation.

[8] = least favorable tested pH vs optimal pH, deionized water

Reduction in UV dose [2, 8] | UV dose for 90% degradation ([2]; pH 5, deionized water, 1 mg/l) | UV dose for 90% degradation ([2]; pH 6, deionized water, 1 mg/l) | UV dose for 90% degradation ([2]; pH 7, deionized water, 1 mg/l) | Structure (SMILES) | Relevant pKa [1] | pH dependence of rate constant (k) for photolytic degradation ([2]; deionized water) | pH dependence of photolytic degradation ([2]; deionized water, in words) | also measured
58.3% | 2400 mJ/cm^2 | 3300 mJ/cm^2 | 5750 mJ/cm^2 | COc1cc(NS(=O)(=O)c2ccc(N)cc2)nc(OC)n1 [SMT, sulfadimethoxine] | 6.08 | higher at a relatively low pH (pH 5) | more rapid at a pH of 5 than at a pH of 7 | Optimal pH for photodegradation [2]: 5
– | – | – | – | Cc1ncc([N+](=O)[O-])n1CCO [metronidazole] | 2.4 | – | – | Dependency of direct UV photolysis on solution pH ([3]; pH 3-9.5): no significant dependency; Removal efficiency of direct photolysis ([3]; pH 6): low removal efficiency
– | – | – | – | Oc1nc(Cl)c(Cl)cc1Cl [TCP, 3,5,6-trichloro-2-pyridinol] | – | – | – | Degradation of TCP via indirect photolytic process [4]: 50%; Degradation of TCP via direct photolytic process ([5]; UV fluence of 50 mJ/cm^2): approximately 40%; Photodegradation rate, constant maximum value ([5]; pH 5): 6.40×10^−3 cm^2 mJ^−1
84.7% | 4600 mJ/cm^2 | 2091 mJ/cm^2 | 697 mJ/cm^2 | CCn1cc(C(=O)O)c(=O)c2cc(F)c(N3CCNCC3)cc21 [NOR, norfloxacin] | 8.4 | higher at a relatively high pH (pH 7 or 8) | more rapid at a pH of 7 than at a pH of 5 | –
– | 5750 mJ/cm^2 | 2556 mJ/cm^2 | 1643 mJ/cm^2 | CN(C)[C@@H]1C(O)=C(C(N)=O)C(=O)[C@@]2(O)C(O)=C3C(=O)c4c(O)cccc4[C@@](C)(O)[C@H]3[C@H](O)[C@@H]12 [OTC, oxytetracycline] | – | higher at a pH of 7 than at a pH of 5 | more rapid at a pH of 7 than at a pH of 5 | Degradation in mixture (30 min, pH 5): 54%; Degradation in mixture (60 min): 91%; Degradation in mixture without change of pH, by extrapolation (60 min, pH 5): 81%
– | – | – | – | CCc1cccc(C)c1N(C(=O)CCl)C(C)COC (stereo not shown) [metolachlor] | – | – | – | Fraction degraded [6]: Approximately half
– | – | – | – | CC(COc1ccc(Oc2ccccc2)cc1)Oc1ccccn1 (stereo not shown) [PRX, pyriproxyfen] | – | – | – | pH dependence of photolytic degradation ([2]; 1 mg/l): more rapid at a pH of 5 than at a pH of 3; UV dose for 90% removal ([2]; pH 3, deionized water): 2555.6 mJ/cm^2; UV dose for 90% removal ([2]; pH 4, deionized water): 1352.9 mJ/cm^2; UV dose for 90% removal ([2]; pH 5, deionized water): 1277.8 mJ/cm^2; Reduction in UV dose ([2]; tested pH 3-5, deionized water): 50%
68.2% | 3286 mJ/cm^2 | 2300 mJ/cm^2 | 1045 mJ/cm^2 | CCN1CCN(c2cc3c(cc2F)c(=O)c(C(=O)O)cn3C2CC2)CC1 [ENR, enrofloxacin] | 5.94 | – | more rapid at a pH of 7 than at a pH of 5 | –
80.7% | 2091 mJ/cm^2 | 742 mJ/cm^2 | 403 mJ/cm^2 | O=C(O)c1cn(C2CC2)c2cc(N3CCNCC3)c(F)cc2c1=O [CPR, Ciprofloxacin] | – | higher at a pH of 7 than at a pH of 5 | more rapid at a pH of 7 than at a pH of 5 | Degradation in mixture (30 min, pH 5): 26%; Degradation in mixture (60 min): 96%; Degradation in mixture without change of pH, by extrapolation (60 min, pH 5): 53%
33.4% | – | 2875 mJ/cm^2 | 2875 mJ/cm^2 | CC1(C)S[C@@H]2[C@H](NC(=O)[C@H](N)c3ccccc3)C(=O)N2[C@H]1C(=O)O [AMP, ampicillin] | – | – | more rapid at a pH of 8 than at a pH of 7 or 6 | UV dose for 90% degradation ([2]; pH 8, deionized water, 1 mg/l): 1916 mJ/cm2
66.6% | – | 23000 mJ/cm^2 | 11500 mJ/cm^2 | NC(=O)N1c2ccccc2C=Cc2ccccc21 [CPZ, Carbamazepine] | 13 | – | more rapid at a pH of 8 than at a pH of 6 | UV dose for 90% degradation ([2]; pH 8, deionized water, 1 mg/l): 7667 mJ/cm2
36.4% | – | 3285 mJ/cm^2 | 2090 mJ/cm^2 | CC1(C)S[C@@H]2[C@H](NC(=O)[C@H](N)c3ccc(O)cc3)C(=O)N2[C@H]1C(=O)O [AMX, Amoxicillin] | 6.9 | higher at a relatively high pH (pH 7 or 8) | more rapid at a pH of 7 or 8 than at a pH of 6 | UV dose for 90% degradation ([2]; pH 8, deionized water, 1 mg/l): 2090 mJ/cm2
95% and 95.4% | – | 23000 mJ/cm^2 | 3833 mJ/cm^2 | COc1cc(Cc2cnc(N)nc2N)cc(OC)c1OC [TMP, Trimethoprim] | – | higher at a relatively high pH (pH 7 or 8) | more rapid at a pH of 8 than at a pH of 6 | Enhancement of photolysis rate ([2]; changing the pH value from 6 to 8, deionized water): more than 12 fold; UV dose for 90% degradation ([2]; pH 8, deionized water, 1 mg/l): 1770 mJ/cm2
73.4% | – | 590 mJ/cm^2 | – | Cc1cc(NS(=O)(=O)c2ccc(N)cc2)no1 [SMX, sulfamethoxazole] | – | higher at a pH of 5 than at a pH of 7 | more rapid at a pH of 5 than at a pH of 7 | Optimal pH for photodegradation [2]: 5; Irradiation time for 90% degradation ([2]; pH 5, deionized water): approximately 4 minutes; Irradiation time for 90% degradation ([2]; pH 7, deionized water): approximately 12 minutes; Degradation in mixture (30 min, pH 5): 98.4%; UV dose for 90% degradation ([7]; pH 7, synthetic effluent water): 1643 mJ/cm^2; Reduction in UV dose ([7]; pH 7 vs pH 5, synthetic effluent water): 80.8%; pH dependence of photolytic degradation ([7]; synthetic effluent water, in words): more rapid at a pH of 5 than at a pH of 7

Structure (SMILES) | Reduction in UV dose [2, 8] | UV dose for 90% degradation ([2]; pH 5, deionized water, 1 mg/l) | UV dose for 90% degradation ([2]; pH 6, deionized water, 1 mg/l) | UV dose for 90% degradation ([2]; pH 7, deionized water, 1 mg/l) | Relevant pKa [1] | pH dependence of rate constant (k) for photolytic degradation ([2]; deionized water) | pH dependence of photolytic degradation ([2]; deionized water, in words) | also measured
CN(C)[C@@H]1C(O)=C(C(N)=O)C(=O)[C@@]2(O)C(O)=C3C(=O)c4c(O)cccc4[C@@](C)(O)[C@H]3C[C@@H]12 [TC, Tetracycline] | – | 8000 mJ/cm^2 | 2300 mJ/cm^2 | 1200 mJ/cm^2 | – | higher at a relatively high pH (pH 7 or 8) | more rapid at a pH of 7 than at a pH of 5 | –
